Laboratory results reported in publication PMC10988555, “Exploiting Co(III)-Cyclopentadienyl Complexes To Develop Anticancer Agents” (Inorganic Chemistry, 2024).

Key:
[1] = test system: plasmidic DNA (pUC18); assay: Interaction with pDNA and cleavage mechanism (agarose gel electrophoresis); format: biochemical; details: 25 μM complex with NaN3, catalase or D2O, 24 h
Experimental: E. coli transformed with pUC18 was inoculated onto a plate of LB-agar medium (Luria–Bertani) (Applichem, Darmstadt, Germany) supplemented with ampicillin (100 μg/mL) (Bioline, London, UK) and incubated for 24 h at 37 °C. Then, the E. coli cells were inoculated in liquid LB medium, supplemented with ampicillin (100 μg/mL) for 24 h at 37 °C. After incubation, the plasmid DNA (pDNA) was extracted by using the Kit NZYSpeedy Miniprep, following the instructions provided by the manufacturer.
The extracted pDNA (100 ng) was incubated with 5, 25, 50, and 100 μM concentrations of complexes 2–4, with DMSO 0.1% or only pUC18. The solutions were prepared in 5 mM Tris–HCl, 50 mM NaCl, pH 7.02, buffer, and incubated for 24 h at 37 °C. A control of pDNA cleaved with Hind III endonuclease was also used. Electrophoresis was performed in 0.8% (w/v) agarose gel (NZYtech) in TAE buffer at 70 V constant voltage for 1 h. Electrophoresis gel image was acquired in the Gel Doc EZ Imager (Bio-Rad).
The pDNA (100 ng) was incubated with 25 μM of complexes 2–4, in the absence or presence of 50 μM of NaN3, 4 units of catalase from the bovine liver (2000–5000 U/mg, Sigma-Aldrich, Spain), and 25 mM of D2O. The solutions were prepared in 5 mM Tris–HCl, 50 mM NaCl, pH 7.02, buffer, and incubated for 24 h at 37 °C. A control of pDNA cleaved with Hind III endonuclease was also used. […]

[2] = Octanol-water partition coefficient, shake-flask method; format: physicochemical; details: room temperature
Experimental: The lipophilicity of the CoCp complexes was estimated by the shake-flask method.[54] Before the assays, n-octanol was vigorously mixed with distilled water for 24 h at room temperature to promote solvent saturation of both phases. After separating the phases, the complexes were dissolved in the n-octanol phase to obtain solutions 1.0 × 10^–5 to 2.5 × 10^–4 M. Then, each solution was equilibrated with water for 4 h in a mechanical shaker, at a phase ratio of 2 mL n-octanol:2 mL water. Afterward, the aqueous and octanol layers were carefully separated by centrifugation (5000 rpm, 10 min), and the UV–vis absorption spectra of the complexes were recorded in the n-octanol phase. For each sample, the concentration was determined by using a calibration curve in n-octanol. All experiments were performed in triplicate for each complex, being the averages used for calculation purposes. Finally, the values of the partition coefficients were calculated by resorting to the following eq (eq 1): [drawing 1] 1 where logPoct/water represents the octanol–water partition coefficient, [complex]oct represents the concentration of the complex in the n-octanol phase, and [complex]water represents the concentration of the complex in the water phase.

[3] = test system: Caspase 8 in A2780 cell line; assay: Caspase 8 activity assay; format: cell-based, human; details: A2780, IC50, 48 h, normalized to DMSO
Experimental: The A2780 cell line was seeded in 25 cm^2 T-flasks at a density of 2 × 10^6 cells/T-flasks. […] After that, cells were detached using cold PBS 1× and a cell scraper and centrifuged at 500 × g for 5 min. Then, we followed the instructions provided by the manufacturer of the Caspase-8 assay kit (Abcam). The data was obtained by measuring the absorbance of each sample at 400 nm and each value was normalized to the value of the DMSO sample.

[4] = test system: A2780 cells; assay: Cellular viability after 12 h at 37 °C versus 4 °C; format: cell-based, human; details: A2780, 12 h, 20× IC50
[5] = test system: BAX and BCL-2 proteins in A2780 cell line; assay: BAX and BCL-2 protein expression by Western blot; format: cell-based, human; details: A2780, IC50, 48 h, normalized against DMSO control (=1)
Experimental: The quantification of BAX and BCL-2 protein expression in the A2780 cell line incubated with different cobalt complexes in the A2780 cell line was determined by WB. For this, the A2780 cell line was cultivated in 25 cm^2 T-flasks at a density of 2 × 10^6 cells/mL and incubated for 24 h in the conditions described above. […] After 48 h incubation, the cells were washed and collected using cold PBS 1× and a cell scraper. The samples were centrifuged for 5 min at 700 × g and resuspended in fresh lysis buffer (150 mM NaCl, 5 mM ethylenediaminetetraacetic acid (EDTA), 50 mM Tris–HCl at pH 8.0, 2% (v/v) NP-40, 1× phosphatase inhibitors (PhosStop, Roche), 1× Protease inhibitors (complete ULTRA tablets, Mini, easypack, Roche), 1 mM phenylmethylsulfonylfuoride (PMSF) and 0.1% 1,4-dithiothreitol (v/v), DTT) and then storage at −80 °C for 2 h or until required. Cells were submitted to 5 ultrasound cycles and centrifuged at 1000 × g for 5 min. The total protein extract (supernatant) was quantified with Pierce Protein Assay Reagent (ThermoFisher Scientific) at 660 nm. […]
The membranes were incubated with WesternBright ECL subtract (Advansta) for 5 min in the dark and the film was exposed to the membranes in a dark room. […] Protein quantification was made by densitometry with ImageJ software.

| Structure (SMILES) | pDNA cleavage mechanism [1] | logP (n-octanol/water partition coefficient) [2] | caspase 8 activity relative to control [3] [×] | cytotoxic activity at 4 °C compared to 37 °C [4] | BAX/BCL-2 ratio [5] |
| --- | --- | --- | --- | --- | --- |
| Cc1ccnc(-c2cc(C)ccn2)c1.O=S(=O)([O-])C(F)(F)F.O=S(=O)([O-])C(F)(F)F.[Co+3].c1cc[cH-]c1.c1ccc(P(c2ccccc2)c2ccccc2)cc1 [Complex 2, [Co(η^5-C5H5)(PPh3)(Me2bipy)][(CF3SO3)2]] | cleave pDNA through singlet oxygen | −0.56 ± 0.02 | 2 | significantly lose some of their cytotoxic activity at 4 °C |  |
| O=S(=O)([O-])C(F)(F)F.O=S(=O)([O-])C(F)(F)F.[Co+3].c1cc[cH-]c1.c1ccc(P(c2ccccc2)c2ccccc2)cc1.c1cnc2c(c1)ccc1cccnc12 [Complex 3, [Co(η^5-C5H5)(PPh3)(phen)][(CF3SO3)2]] | cleave pDNA through singlet oxygen | −0.28 ± 0.05 |  | significantly lose some of their cytotoxic activity at 4 °C | 2.8 |
| Nc1cc2cccnc2c2ncccc12.O=S(=O)([O-])C(F)(F)F.O=S(=O)([O-])C(F)(F)F.[Co+3].c1cc[cH-]c1.c1ccc(P(c2ccccc2)c2ccccc2)cc1 [Complex 4, [CoCp(PPh3)(NH2phen)][(CF3SO3)2]] |  | −0.22 ± 0.03 | 1.6 |  | < 1 |
